Patent publication US20070003585A1, “Topical skin treating compositions” (STIEFEL LABORATORIES, INC., priority 2005, published 2007)
Read-outs that look alike come from different tables or passages of the source.

Tests used:
[1] = Storage stability of composition containing 2.02% of benzoyl peroxide, […] of tazarotene, and […] of clindamycin (Example 9); assay type: physicochemical; conditions: Example 9 composition, initial 2.02%
[2] = Example 13 composition, initial […]
[3] = Example 10 composition, initial 1.54%
[4] = Example 6 composition, initial 5.54%
[5] = Storage stability of composition containing 2.15% of benzoyl peroxide, […] of tazarotene, and […] of clindamycin (Example 8); assay type: physicochemical; conditions: Example 8 composition, initial 2.15%, 6 months
[6] = Example 11 composition, initial […]
[7] = Example 12 composition, initial […]
[8] = Storage stability of composition containing 5.18% of benzoyl peroxide and 0.099% of tazarotene (Example 18); assay type: physicochemical; conditions: Example 18 composition, initial 5.18%
Source text: (§1) The results are as follows:

[9] = Storage stability of composition containing 2.02% of benzoyl peroxide and 0.099% of tazarotene (Example 17); assay type: physicochemical; conditions: Example 17 composition, initial 2.02%
Source text: as §1

[10] = Example 7 composition, initial 5.22%

Benzoyl Peroxide (BPO) (as % w/w) ([1]; 6 months, 6° C.): 2.10 % w/w | Benzoyl Peroxide (BPO) (as % w/w) ([1]; 6 months, 25° C.): 2.00 % w/w | Benzoyl Peroxide (BPO) (as % w/w) ([1]; 6 months, 30° C.): 1.94 % w/w | Benzoyl Peroxide (BPO) (as % w/w) ([1]; 6 months, 40° C.): 1.45 % w/w | Benzoyl Peroxide (BPO) (as % w/w) ([1]; 90 days, 6° C.): 2.02 % w/w | Benzoyl Peroxide (BPO) (as % w/w) ([1]; 90 days, 25° C.): 1.97 % w/w | Benzoyl Peroxide (BPO) (as % w/w) ([1]; 90 days, 30° C.): 1.97 % w/w | Benzoyl Peroxide (BPO) (as % w/w) ([1]; 90 days, 40° C.): 1.73 % w/w | Benzoyl Peroxide (BPO) (as % w/w) ([2]; 2 weeks, 6° C.): 0.99 % w/w | Benzoyl Peroxide (BPO) (as % w/w) ([2]; 2 weeks, 25° C.): 0.98 % w/w | Benzoyl Peroxide (BPO) (as % w/w) ([2]; 2 weeks, 30° C.): 0.98 % w/w | Benzoyl Peroxide (BPO) (as % w/w) ([2]; 2 weeks, 40° C.): 0.96 % w/w | Benzoyl Peroxide (BPO) (as % w/w) ([2]; 6 months, 6° C.): 1.02 % w/w | Benzoyl Peroxide (BPO) (as % w/w) ([2]; 6 months, 25° C.): 0.96 % w/w | Benzoyl Peroxide (BPO) (as % w/w) ([2]; 6 months, 30° C.): 0.91 % w/w | Benzoyl Peroxide (BPO) (as % w/w) ([2]; 6 months, 40° C.): 0.40 % w/w | Benzoyl Peroxide (BPO) (as % w/w) ([2]; 90 days, 6° C.): 1.02 % w/w | Benzoyl Peroxide (BPO) (as % w/w) ([2]; 90 days, 25° C.): 0.99 % w/w | Benzoyl Peroxide (BPO) (as % w/w) ([2]; 90 days, 30° C.): 0.95 % w/w | Benzoyl Peroxide (BPO) (as % w/w) ([2]; 90 days, 40° C.): 0.73 % w/w | Benzoyl Peroxide (BPO) (as % w/w) ([3]; 6 months, 6° C.): 1.50 % w/w | Benzoyl Peroxide (BPO) (as % w/w) ([3]; 6 months, 25° C.): 1.40 % w/w | Benzoyl Peroxide (BPO) (as % w/w) ([3]; 6 months, 30° C.): 1.40 % w/w | Benzoyl Peroxide (BPO) (as % w/w) ([3]; 6 months, 40° C.): 1.03 % w/w | Benzoyl Peroxide (BPO) (as % w/w) ([3]; 90 days, 6° C.): 1.50 % w/w | Benzoyl Peroxide (BPO) (as % w/w) ([3]; 90 days, 25° C.): 1.44 % w/w | Benzoyl Peroxide (BPO) (as % w/w) ([3]; 90 days, 30° C.): 1.42 % w/w | Benzoyl Peroxide (BPO) (as % w/w) ([3]; 90 days, 40° C.): 1.28 % w/w | Benzoyl Peroxide (BPO) (as % w/w) ([4]; 2 weeks, 25° C.): 5.43 % w/w | Benzoyl Peroxide (BPO) (as % w/w) ([4]; 2 weeks, 30° C.): 5.35 % w/w | Benzoyl Peroxide (BPO) (as % w/w) ([4]; 2 weeks, 40° C.): 5.34 % w/w | Benzoyl Peroxide (BPO) (as % w/w) ([4]; 90 days, 6° C.): 5.48 % w/w | Benzoyl Peroxide (BPO) (as % w/w) ([4]; 90 days, 25° C.): 5.34 % w/w | Benzoyl Peroxide (BPO) (as % w/w) ([4]; 90 days, 30° C.): 5.33 % w/w | Benzoyl Peroxide (BPO) (as % w/w) ([4]; 90 days, 40° C.): 5.19 % w/w | Benzoyl Peroxide (BPO) (as % w/w) ([5]; 6° C.): 2.13 % w/w | Benzoyl Peroxide (BPO) (as % w/w) ([5]; 25° C.): 2.00 % w/w | Benzoyl Peroxide (BPO) (as % w/w) ([5]; 30° C.): 2.05 % w/w | Benzoyl Peroxide (BPO) (as % w/w) ([5]; 40° C.): 1.69 % w/w | Benzoyl Peroxide (BPO) (as % w/w) ([6]; 2 weeks, 6° C.): 0.99 % w/w | Benzoyl Peroxide (BPO) (as % w/w) ([6]; 2 weeks, 25° C.): 0.95 % w/w | Benzoyl Peroxide (BPO) (as % w/w) ([6]; 2 weeks, 40° C.): 0.94 % w/w | Benzoyl Peroxide (BPO) (as % w/w) ([6]; 6 months, 6° C.): 0.99 % w/w | Benzoyl Peroxide (BPO) (as % w/w) ([6]; 6 months, 25° C.): 0.91 % w/w | Benzoyl Peroxide (BPO) (as % w/w) ([6]; 6 months, 40° C.): 0.35 % w/w | Benzoyl Peroxide (BPO) (as % w/w) ([6]; 30 days, 6° C.): 0.98 % w/w | Benzoyl Peroxide (BPO) (as % w/w) ([6]; 30 days, 25° C.): 0.95 % w/w | Benzoyl Peroxide (BPO) (as % w/w) ([6]; 30 days, 40° C.): 0.90 % w/w | Benzoyl Peroxide (BPO) (as % w/w) ([6]; 90 days, 6° C.): 0.99 % w/w | Benzoyl Peroxide (BPO) (as % w/w) ([6]; 90 days, 25° C.): 0.93 % w/w | Benzoyl Peroxide (BPO) (as % w/w) ([6]; 90 days, 40° C.): 0.69 % w/w | Benzoyl Peroxide (BPO) (as % w/w) ([7]; 2 weeks, 6° C.): 0.99 % w/w | Benzoyl Peroxide (BPO) (as % w/w) ([7]; 2 weeks, 25° C.): 0.97 % w/w | Benzoyl Peroxide (BPO) (as % w/w) ([7]; 2 weeks, 30° C.): 0.97 % w/w | Benzoyl Peroxide (BPO) (as % w/w) ([7]; 2 weeks, 40° C.): 0.94 % w/w | Benzoyl Peroxide (BPO) (as % w/w) ([7]; 6 months, 6° C.): 1.01 % w/w | Benzoyl Peroxide (BPO) (as % w/w) ([7]; 6 months, 25° C.): 0.95 % w/w | Benzoyl Peroxide (BPO) (as % w/w) ([7]; 6 months, 30° C.): 0.92 % w/w | Benzoyl Peroxide (BPO) (as % w/w) ([7]; 6 months, 40° C.): 0.40 % w/w | Benzoyl Peroxide (BPO) (as % w/w) ([7]; 90 days, 6° C.): 1.00 % w/w | Benzoyl Peroxide (BPO) (as % w/w) ([7]; 90 days, 25° C.): 0.94 % w/w | Benzoyl Peroxide (BPO) (as % w/w) ([7]; 90 days, 30° C.): 0.93 % w/w | Benzoyl Peroxide (BPO) (as % w/w) ([7]; 90 days, 40° C.): 0.73 % w/w | Benzoyl peroxide (as % w/w) ([8]; 6 months, 6° C.): 5.2 % w/w | Benzoyl peroxide (as % w/w) ([8]; 6 months, 25° C.): 5.14 % w/w | Benzoyl peroxide (as % w/w) ([8]; 6 months, 30° C.): 5.02 % w/w | Benzoyl peroxide (as % w/w) ([8]; 6 months, 40° C.): 4.81 % w/w | Benzoyl peroxide (as % w/w) ([8]; 90 days, 6° C.): 5.25 % w/w | Benzoyl peroxide (as % w/w) ([8]; 90 days, 25° C.): 5.23 % w/w | Benzoyl peroxide (as % w/w) ([8]; 90 days, 30° C.): 5.30 % w/w | Benzoyl peroxide (as % w/w) ([8]; 90 days, 40° C.): 5.16 % w/w | Benzoyl peroxide (as % w/w) ([9]; 6 months, 6° C.): 2.07 % w/w | Benzoyl peroxide (as % w/w) ([9]; 6 months, 25° C.): 2.03 % w/w | Benzoyl peroxide (as % w/w) ([9]; 6 months, 30° C.): 2.05 % w/w | Benzoyl peroxide (as % w/w) ([9]; 6 months, 40° C.): 1.94 % w/w | Benzoyl peroxide (as % w/w) ([9]; 90 days, 6° C.): 2.09 % w/w | Benzoyl peroxide (as % w/w) ([9]; 90 days, 25° C.): 2.06 % w/w | Benzoyl peroxide (as % w/w) ([9]; 90 days, 30° C.): 2.07 % w/w | Benzoyl peroxide (as % w/w) ([9]; 90 days, 40° C.): 2.01 % w/w | Benzoyl Peroxide (BPO) (as % w/w) ([10]; 2 weeks, 6° C.): 5.22 % w/w | Benzoyl Peroxide (BPO) (as % w/w) ([10]; 2 weeks, 25° C.): 5.24 % w/w | Benzoyl Peroxide (BPO) (as % w/w) ([10]; 2 weeks, 30° C.): 5.23 % w/w | Benzoyl Peroxide (BPO) (as % w/w) ([10]; 2 weeks, 40° C.): 5.12 % w/w | Benzoyl Peroxide (BPO) (as % w/w) ([10]; 6 months, 6° C.): 5.16 % w/w | Benzoyl Peroxide (BPO) (as % w/w) ([10]; 6 months, 25° C.): 4.80 % w/w | Benzoyl Peroxide (BPO) (as % w/w) ([10]; 6 months, 30° C.): 4.91 % w/w | Benzoyl Peroxide (BPO) (as % w/w) ([10]; 6 months, 40° C.): 4.59 % w/w
SMILES: O=C(OOC(=O)c1ccccc1)c1ccccc1 [Benzoyl Peroxide]
